Reference: patent publication US10080739B2, “Aryl imidazoles and their use as anti-cancer agents” (Aptose Biosciences Inc., priority 2003, dated 2018)
Read-outs that look alike come from different tables or passages of the source.

What was measured:
[1] = tested on: human colon carcinoma cells (HT-29); assay: XTT cell proliferation assay, HT-29 cells, 48 h; format: cell-based; conditions: read-out: % Survival; for viability at 25 µM: 25 μM compound; for viability at 100 µM: 100 μM compound
Protocol: (§1) Selected compounds of Formula I were tested for anti-cancer activity in vitro using a human colon carcinoma cells (HT-29) and human non-small cell lung cancer cells (H460). The cells were maintained in α-MEM medium (Wisent, St-Bruno, Qc) supplemented with 10% FBS, and grown at 37° C. in an atmosphere of 5% CO2. Cells were transferred onto 150 mm tissue culture plates and grown until sub-confluency (70-80%) prior to their use.
(§2) The anti-cancer activity in vitro was evaluated by a cell proliferation assay based on the ability of live cells to reduce the tetrazolium salt XTT to orange coloured compounds of formazan (XTT cell proliferation kit II, Roche Applied Science, Montreal, QC).
(§3) Approximately 4×10^3 colon cancer cells (HT-29) or 2×10^3 non-small cell lung cancer cells (NCI-H460) in 100 μl of complete culture medium were plated onto 96-well microtiter plates and incubated overnight at 37° C. The medium was then removed by inverting the plate and patting on a sterile absorbent cloth. Fifty μl of medium containing the test compound at either 25 or 100 μM, were added to the wells containing cells and incubated at 37° C. in an atmosphere of 5% CO2 for 48 h. Following incubation, 25 μl of an XTT reaction mixture (XTT at a final concentration of 0.3 mg/ml) were added to each well and the plates were incubated for a further 4 h. The absorbance of each sample was then determined at a wavelength of 490 nm/650 nm as reference. Each compound was tested in duplicate and the results are reported as averages.

[2] = tested on: human non-small cell lung cancer cells (H460); assay: XTT cell proliferation assay, H460 cells, 48 h; format: cell-based; conditions: read-out: % Survival
Protocol: as §1, §2, §3

[3] = NCI/DTP data; cited from earlier work
[4] = NCI-H460 cells, 25 μM compound, 48 h, XTT
[5] = NCI-H460 cells, 100 μM compound, 48 h, XTT

melting point [°C] | Structure (SMILES) | viability at 25 µM [1] [%] | viability at 100 µM [1] [%] | viability at 25 µM [2, 4] [%] | viability at 100 µM [2, 5] [%] | viability at 25 µM ([2]; NCI-H460, 48 h) [%] | viability at 100 µM ([2]; NCI-H460, 48 h) [%] | activity in the In Vivo Anticancer Drug Screen [3]
240 to 242 | c1ccc(-c2[nH]c3ccccc3c2-c2nc3c4ccccc4c4ccccc4c3[nH]2)cc1 |  |  |  |  |  |  | 
365 to 366 | O=[N+]([O-])c1ccc2c3ccccc3c3nc(-c4c[nH]c5ccccc45)[nH]c3c2c1 |  |  |  |  |  |  | 
236 to 237 | Brc1ccc2[nH]cc(C=Nc3ccc4c5ccccc5c5nc(-c6c[nH]c7ccc(Br)cc67)[nH]c5c4c3)c2c1 |  |  |  |  |  |  | 
335 to 336 | Cc1[nH]c2ccccc2c1-c1nc2c3ccccc3c3ccc([N+](=O)[O-])cc3c2[nH]1 |  |  |  |  |  |  | 
300 to 303 | Nc1ccc2c3ccccc3c3nc(-c4c[nH]c5ccc(Br)cc45)[nH]c3c2c1 |  |  |  |  |  |  | 
 | CCc1c2c(nc3ccc(OC(=O)N4CCC(N5CCCCC5)CC4)cc13)-c1cc3c(c(=O)n1C2)COC(=O)[C@]3(O)CC [CPT-11, irinotecan, reference compound] | 82.3 | 51.1 | 32.2 | 6.1 |  |  | 
 | CC(=O)n1c(-c2c(C)n(C(C)=O)c3ccccc23)nc(-c2ccccc2)c1-c1ccccc1 [Compound 5] | 111 | 111 | 102 | 106 |  |  | 
 | Brc1ccc2[nH]cc(-c3nc(-c4ccccc4)c(-c4ccccc4)[nH]3)c2c1 [Compound 6] | 11.7 | 3.2 | 10.4 | 1.9 |  |  | 
 | COc1ccc(-c2nc(-c3c(C)[nH]c4ccccc34)[nH]c2-c2ccc(OC)cc2)cc1 [Compound 9] | 68.3 | 15.1 | 98.2 | 8.4 |  |  | 
 | COc1ccc(-c2nc(-c3c[nH]c4ccc(Br)cc34)[nH]c2-c2ccc(OC)cc2)cc1 [Compound 10] | 25.8 | 7.6 | 26.9 | 2.7 |  |  | 
 | Cc1[nH]c2ccccc2c1-c1nc(-c2ccc(N(C)C)cc2)c(-c2ccc(N(C)C)cc2)[nH]1 [Compound 11] | 108 | 94.3 | 98.8 | 102 |  |  | 
 | Cc1[nH]c2ccccc2c1-c1nc(-c2ccc(Br)cc2)c(-c2ccc(Br)cc2)[nH]1 [Compound 13] | 106 | 82.4 | 102 | 96.2 |  |  | 
 | Brc1ccc(-c2nc(-c3c[nH]c4ccc(Br)cc34)[nH]c2-c2ccc(Br)cc2)cc1 [Compound 14] | 55.2 | 3.8 | 83.5 | 1.8 |  |  | 
165 to 167 | Cc1[nH]c2ccccc2c1-c1nc(-c2ccc(Cl)cc2)c(-c2ccc(Cl)cc2)[nH]1 [Compound 19] | 106 | 37.1 | 89.2 | 27.3 |  |  | 
 | Clc1ccc(-c2nc(-c3c[nH]c4ccc(Br)cc34)[nH]c2-c2ccc(Cl)cc2)cc1 [Compound 20] | 100 | 28.1 | 98.6 | 82.1 |  |  | 
 | Cc1ccc(-c2nc(-c3c(C)[nH]c4ccccc34)[nH]c2-c2ccc(C)cc2)cc1 [Compound 23] | 98.2 | 45.7 | 96.3 | 92.1 |  |  | 
 | Cc1[nH]c2ccccc2c1-c1nc(-c2cccs2)c(-c2cccs2)[nH]1 [Compound 25] | 63.9 | 39.8 | 99.5 | 89 |  |  | 
 | Cc1[nH]c2ccccc2c1-c1nc(-c2ccncc2)c(-c2ccc(F)cc2)[nH]1 [Compound 27] | 62.3 | 35 | 93.5 | 43.1 |  |  | 
 | Cc1[nH]c2ccccc2c1-c1nc(-c2cccc([N+](=O)[O-])c2)c(-c2cccc([N+](=O)[O-])c2)[nH]1 [Compound 29] | 37.1 | 20.9 |  |  | 73.8 | 20.2 | 
 | Cc1[nH]c2ccccc2c1-c1nc(-c2ccccc2)c(-c2ccc(Cl)cc2)[nH]1 [Compound 31] | 98.6 | 24.9 | 94 | 37.6 |  |  | 
 | Clc1ccc(-c2[nH]c(-c3c[nH]c4ccc(Br)cc34)nc2-c2ccccc2)cc1 [Compound 32] | 22.7 | 7.7 | 15 | 2.9 |  |  | 
 | Cc1[nH]c2ccccc2c1-c1nc(-c2ccccc2)c(-c2ccc([N+](=O)[O-])cc2)[nH]1 [Compound 33] | 56.1 | 10 | 73.4 | 9.4 |  |  | 

melting point [°C] | Structure (SMILES) | viability at 25 µM [1] [%] | viability at 100 µM [1] [%] | viability at 25 µM [2, 4] [%] | viability at 100 µM [2, 5] [%] | viability at 25 µM ([2]; NCI-H460, 48 h) [%] | viability at 100 µM ([2]; NCI-H460, 48 h) [%] | activity in the In Vivo Anticancer Drug Screen [3]
 | O=[N+]([O-])c1ccc(-c2[nH]c(-c3c[nH]c4ccc(Br)cc34)nc2-c2ccccc2)cc1 [Compound 34] | 22.8 | 10.8 | 17.4 | 7.6 |  |  | 
 | Cc1[nH]c2ccccc2c1-c1nc(-c2ccccc2)c(-c2ccc(F)cc2)[nH]1 [Compound 35] | 44.1 | 2.5 | 83.8 | 1.2 |  |  | 
 | Fc1ccc(-c2[nH]c(-c3c[nH]c4ccc(Br)cc34)nc2-c2ccccc2)cc1 [Compound 36] | 31.6 | 4.7 | 24.5 | 2.4 |  |  | 
 | Cc1[nH]c2ccccc2c1-c1nc(-c2ccc(Oc3ccccc3)cc2)c(-c2ccc(Oc3ccccc3)cc2)[nH]1 [Compound 38] | 67 | 35.7 | 98.8 | 12.2 |  |  | 
 | Cc1[nH]c2ccc(Br)cc2c1-c1nc(-c2ccc(Oc3ccccc3)cc2)c(-c2ccc(Oc3ccccc3)cc2)[nH]1 [Compound 39] | 96.2 | 53 | 98.1 | 17 |  |  | 
 | Cc1[nH]c2ccccc2c1-c1nc(-c2ccc(-c3ccccc3)cc2)c(-c2ccc(-c3ccccc3)cc2)[nH]1 [Compound 40] | 79.1 | 36.7 | 97.6 | 7.7 |  |  | 
155 to 158 | Brc1ccc2[nH]cc(-c3nc(-c4ccc(-c5ccccc5)cc4)c(-c4ccc(-c5ccccc5)cc4)[nH]3)c2c1 [Compound 41] |  |  |  |  |  |  | 
 | Cc1[nH]c2ccccc2c1-c1nc(-c2ccccc2)c(-c2ccc(Br)cc2)[nH]1 [Compound 42] | 59.9 | 1.8 | 66.1 | 1.2 |  |  | 
 | Brc1ccc(-c2[nH]c(-c3c[nH]c4ccc(Br)cc34)nc2-c2ccccc2)cc1 [Compound 43] | 28 | 5.7 | 18.8 | 3 |  |  | 
 | Cc1[nH]c2ccccc2c1-c1nc2c3ccccc3c3ccccc3c2[nH]1 [Compound 44] | 63.6 | 6.5 |  |  | 77.3 | 3.4 | 
 | c1ccc2c(-c3nc4c5ccccc5c5ccccc5c4[nH]3)c[nH]c2c1 [Compound 46] | 16.1 | 4.5 |  |  | 11.5 | 1.9 | 
 | COc1ccc(-c2nc(-c3ccccc3)c(-c3ccccc3)[nH]2)c(OC)c1 [Compound 73] | 65 | 62.2 | 89.2 | 53.5 |  |  | 
 | COC(=O)c1ccc2c(-c3nc(-c4ccccc4)c(-c4ccccc4)[nH]3)c[nH]c2c1 [Compound 83] | 100 | 110 | 101 | 109 |  |  | 
265 to 266 | COc1ccc(-c2nc(-c3c[nH]c4ccc(Br)cc34)[nH]c2-c2ccccc2)cc1OC [Compound 96] |  |  |  |  |  |  | 
210 to 215 | Oc1ccc(-c2[nH]c(-c3c[nH]c4ccc(Br)cc34)nc2-c2ccccc2)cc1O [Compound 140] |  |  |  |  |  |  | 
258 to 259 | COc1ccc(-c2nc(-c3c[nH]c4ccccc34)[nH]c2-c2ccccc2)cc1OC [Compound 152] |  |  |  |  |  |  | 
239 to 240 | Cc1[nH]c2ccccc2c1-c1nc(-c2cccc3ccccc23)c(-c2ccccc2)[nH]1 [Compound 180] |  |  |  |  |  |  | 
308 to 310 | Brc1ccc2[nH]cc(-c3nc(-c4cccc5ccccc45)c(-c4ccccc4)[nH]3)c2c1 [Compound 181] |  |  |  |  |  |  | 
264 to 265 | Nc1ccc(-c2[nH]c(-c3c[nH]c4ccccc34)nc2-c2ccccc2)cc1 [Compound 182] |  |  |  |  |  |  | 
 | c1ccc2c(-c3nc4ccccc4[nH]3)cccc2c1 [Compound 144033] |  |  |  |  |  |  | None of these three compounds showed any activity
 | CN(C)c1ccc(-c2nc3c4ccccc4c4ccccc4c3[nH]2)cc1 [NCI #322334] |  |  |  |  |  |  | None of these three compounds showed any activity
